#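 Test compounds were applied to cells in 96-well plates for 48 hours at 5 doses. GI50 is the concentration that inhibits growth by half. Definition used: TGI = concentration required for complete inhibition of growth.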
# How the values were obtained:
# Test in all cases: NCI tumour cell line growth inhibition, 48 h
# UO-31 renal = tested on: UO-31 renal
# K-562 leukemia = tested on: K-562 leukemia
# KM12 colon = tested on: KM12 colon
# SR leukemia = tested on: SR leukemia
# NCI-H226 lung = tested on: NCI-H226 lung
# A549 NSCLC = tested on: A549 NSCLC
# CCRF-CEM leukemia = tested on: CCRF-CEM leukemia
# SK-MEL-5 melanoma = tested on: SK-MEL-5 melanoma
# HL-60(TB) leukemia = tested on: HL-60(TB) leukemia
# MDA-MB-231 breast = tested on: MDA-MB-231 breast
# SW-620 colon = tested on: SW-620 colon
# HS 578T breast = tested on: HS 578T breast
# NCI/ADR-RES ovarian = tested on: NCI/ADR-RES ovarian
# MDA-MB-435 = tested on: MDA-MB-435
# SNB-75 CNS = tested on: SNB-75 CNS
# SF-295 CNS = tested on: SF-295 CNS
# IGROV1 ovarian = tested on: IGROV1 ovarian
# T-47D breast = tested on: T-47D breast
# COLO 205 colon = tested on: COLO 205 colon
# HT29 colon = tested on: HT29 colon
# MCF7 breast = tested on: MCF7 breast
# OVCAR-4 ovarian = tested on: OVCAR-4 ovarian
# M14 melanoma = tested on: M14 melanoma
# EKVX NSCLC = tested on: EKVX NSCLC
# HOP-92 NSCLC = tested on: HOP-92 NSCLC
# SK-OV-3 ovarian = tested on: SK-OV-3 ovarian
# HCT-15 colon = tested on: HCT-15 colon
# HCC-2998 colon = tested on: HCC-2998 colon
# HOP-62 NSCLC = tested on: HOP-62 NSCLC
# SK-MEL-28 melanoma = tested on: SK-MEL-28 melanoma
# UACC-62 melanoma = tested on: UACC-62 melanoma
# RXF 393 renal = tested on: RXF 393 renal
# TK-10 renal = tested on: TK-10 renal
# SNB-19 CNS = tested on: SNB-19 CNS
# NCI-H460 lung = tested on: NCI-H460 lung
# U251 CNS = tested on: U251 CNS
# 786-0 renal = tested on: 786-0 renal
# SF-268 CNS = tested on: SF-268 CNS
# MOLT-4 leukemia = tested on: MOLT-4 leukemia
# NCI-H522 lung = tested on: NCI-H522 lung
# LOX IMVI melanoma = tested on: LOX IMVI melanoma
# RPMI-8226 leukemia = tested on: RPMI-8226 leukemia
# OVCAR-8 ovarian = tested on: OVCAR-8 ovarian
# UACC-257 melanoma = tested on: UACC-257 melanoma
# MALME-3M melanoma = tested on: MALME-3M melanoma
# SN12C renal = tested on: SN12C renal
# SF-539 CNS = tested on: SF-539 CNS
# CAKI-1 renal = tested on: CAKI-1 renal
# BT-549 breast = tested on: BT-549 breast
# OVCAR-5 ovarian = tested on: OVCAR-5 ovarian
# ACHN renal = tested on: ACHN renal
# SK-MEL-2 melanoma = tested on: SK-MEL-2 melanoma
# HCT-116 colon = tested on: HCT-116 colon
# PC-3 prostate = tested on: PC-3 prostate
compound,measurement,setting,value
COc1ccc(-c2cc(-c3cccc4ccccc34)n3c(n2)nc2ccccc23)cc1OC,GI50,UO-31 renal,675 nM
same,TGI,UO-31 renal,> 100000 nM
same,GI50,K-562 leukemia,1320 nM
same,TGI,K-562 leukemia,> 100000 nM
same,GI50,KM12 colon,9430 nM
same,TGI,KM12 colon,> 100000 nM
same,GI50,SR leukemia,362 nM
same,TGI,SR leukemia,> 100000 nM
same,GI50,NCI-H226 lung,1160 nM
same,TGI,NCI-H226 lung,6700 nM
same,GI50,A549 NSCLC,580 nM
same,TGI,A549 NSCLC,15200 nM
same,GI50,CCRF-CEM leukemia,556 nM
same,TGI,CCRF-CEM leukemia,> 100000 nM
same,GI50,SK-MEL-5 melanoma,960 nM
same,TGI,SK-MEL-5 melanoma,2840 nM
same,GI50,HL-60(TB) leukemia,419 nM
same,TGI,HL-60(TB) leukemia,3290 nM
same,GI50,MDA-MB-231 breast,1520 nM
same,TGI,MDA-MB-231 breast,> 100000 nM
same,GI50,SW-620 colon,780 nM
same,TGI,SW-620 colon,> 100000 nM
same,GI50,HS 578T breast,1420 nM
same,TGI,HS 578T breast,> 100000 nM
same,GI50,NCI/ADR-RES ovarian,2070 nM
same,TGI,NCI/ADR-RES ovarian,> 100000 nM
same,GI50,MDA-MB-435,2720 nM
same,TGI,MDA-MB-435,> 100000 nM
same,GI50,SNB-75 CNS,867 nM
same,TGI,SNB-75 CNS,4600 nM
same,GI50,SF-295 CNS,582 nM
same,TGI,SF-295 CNS,5330 nM
same,GI50,IGROV1 ovarian,1480 nM
same,TGI,IGROV1 ovarian,> 100000 nM
same,GI50,T-47D breast,1730 nM
same,TGI,T-47D breast,9240 nM
same,GI50,COLO 205 colon,626 nM
same,TGI,COLO 205 colon,> 100000 nM
same,GI50,HT29 colon,1910 nM
same,TGI,HT29 colon,28200 nM
same,GI50,MCF7 breast,509 nM
same,TGI,MCF7 breast,> 100000 nM
same,GI50,OVCAR-4 ovarian,4770 nM
same,TGI,OVCAR-4 ovarian,> 100000 nM
same,GI50,M14 melanoma,2080 nM
same,TGI,M14 melanoma,> 100000 nM
same,GI50,EKVX NSCLC,2790 nM
same,TGI,EKVX NSCLC,> 100000 nM
same,GI50,HOP-92 NSCLC,1650 nM
same,TGI,HOP-92 NSCLC,7990 nM
same,GI50,SK-OV-3 ovarian,2550 nM
same,TGI,SK-OV-3 ovarian,44900 nM
same,GI50,HCT-15 colon,926 nM
same,TGI,HCT-15 colon,> 100000 nM
same,GI50,HCC-2998 colon,1620 nM
same,TGI,HCC-2998 colon,4720 nM
same,GI50,HOP-62 NSCLC,650 nM
same,TGI,HOP-62 NSCLC,4510 nM
same,GI50,SK-MEL-28 melanoma,2880 nM
same,TGI,SK-MEL-28 melanoma,> 100000 nM
same,GI50,UACC-62 melanoma,1030 nM
same,TGI,UACC-62 melanoma,7200 nM
same,GI50,RXF 393 renal,2750 nM
same,TGI,RXF 393 renal,> 100000 nM
same,GI50,TK-10 renal,2470 nM
same,TGI,TK-10 renal,> 100000 nM
same,GI50,SNB-19 CNS,2590 nM
same,TGI,SNB-19 CNS,> 100000 nM
same,GI50,NCI-H460 lung,357 nM
same,TGI,NCI-H460 lung,1750 nM
same,GI50,U251 CNS,1160 nM
same,TGI,U251 CNS,> 100000 nM
same,GI50,786-0 renal,1570 nM
same,TGI,786-0 renal,> 100000 nM
same,GI50,SF-268 CNS,1950 nM
same,TGI,SF-268 CNS,> 100000 nM
same,GI50,MOLT-4 leukemia,354 nM
same,TGI,MOLT-4 leukemia,> 100000 nM
same,GI50,NCI-H522 lung,2750 nM
same,TGI,NCI-H522 lung,> 100000 nM
same,GI50,LOX IMVI melanoma,975 nM
same,TGI,LOX IMVI melanoma,6650 nM
same,GI50,RPMI-8226 leukemia,1340 nM
same,TGI,RPMI-8226 leukemia,4290 nM
same,GI50,OVCAR-8 ovarian,1060 nM
same,TGI,OVCAR-8 ovarian,> 100000 nM
same,GI50,UACC-257 melanoma,2140 nM
same,TGI,UACC-257 melanoma,40300 nM
same,GI50,MALME-3M melanoma,882 nM
same,TGI,MALME-3M melanoma,16700 nM
same,GI50,SN12C renal,1330 nM
same,TGI,SN12C renal,> 100000 nM
same,GI50,SF-539 CNS,1020 nM
same,TGI,SF-539 CNS,7670 nM
same,GI50,CAKI-1 renal,559 nM
same,TGI,CAKI-1 renal,> 100000 nM
same,GI50,BT-549 breast,2270 nM
same,TGI,BT-549 breast,6090 nM
same,GI50,OVCAR-5 ovarian,3030 nM
same,TGI,OVCAR-5 ovarian,> 100000 nM
same,GI50,ACHN renal,461 nM
same,TGI,ACHN renal,3350 nM
same,GI50,SK-MEL-2 melanoma,2570 nM
same,TGI,SK-MEL-2 melanoma,7470 nM
same,GI50,HCT-116 colon,1660 nM
same,TGI,HCT-116 colon,49000 nM
same,GI50,PC-3 prostate,2500 nM
same,TGI,PC-3 prostate,> 100000 nM
